Two compounds from US20030212142A1, “Use of derivatives of valproic acid and 2-valproenic acid amides for the treatment of mania in bipolar disorder” (Yissum Research Development Company of the Hebrew …, priority 2000, published 2003) can be followed below.

In this assay the test system is amphetamine-induced hyperactivity. Nature of the assay: amphetamine-induced hyperactivity model of mania in rats (activity meter, rearing). Type of assay: in vivo, male Sprague Dawley rats. The note with it: Compound 1 200 mg/kg by gavage; for Vertical Activity (Rearing), Mean Activity, Amphetamine challenge: amphetamine 0.5 mg/kg s.c. challenge; for Vertical Activity (Rearing), Mean Activity, Amphetamine challenge / Vertical Activity (Rearing), Mean activity, Saline challenge: movements per 30 min, Li+ 6 mg/kg by gavage; for Vertical Activity (Rearing), Mean activity, Saline challenge: saline s.c. challenge. The procedure: Evaluation of possible anti-bipolar effects of Compound 1 was followed in the amphetamine-induced hyperactivity model of mania in rats. Activities of rats were followed in an activity meter (Elvicom, Israel) based on 2 levels laser beams and equipped with a computerized system that can count the vertical movements of rats (rearing). Activities were recorded for -30 min for each session, and the resultant appropriate movement reported per 30 min. Rats were housed under a 12 hr light/dark cycle and the behavioral testing was conducted in the light phase.
The activities of rats following treatment with Compound 1, Li^+ (the standard drug for mania), and a control group were followed before and after being challenged with amphetamine. The statistical analyses were conducted using a two way ANOVA for the effects of drugs, amphetamine (repeated measure) and the drug-amphetamine interaction.
In these experiments 30 male Sprague Dawley (weighing 200-250 g) rats were equally divided into 3 treatment groups: control, Li^+ (6 mg/kg by gavage)), and Compound 1 (200 mg/kg by gavage) (Drugs were suspended in 5% methyl cellulose). Half of the rats in each group were challenged (administered) amphetamine (0.5 mg/kg subsutaneously (s.c.)) and the other half was given saline (s.c.). Ten minutes later all rats were placed in the activity meter. One week later the procedure was repeated, except that the order of treatment was reversed; those rats which received saline on the first day were given amphetamine and those given amphetamine the first day were administered saline.

Structures are written as SMILES. Entries after “also recorded” stand apart in the source; their conditions may differ.

With `CCCC(CCC)C(=O)NCC(N)=O` [Compound 1], the “Vertical Activity (Rearing), Mean Activity, Amphetamine challenge” value was found to be 71.3 and the “Vertical Activity (Rearing), Mean activity, Saline challenge” value came to 34.1. In addition, for the setting “amphetamine 0.5 mg/kg s.c., p=0.06”, the “effect on amphetamine-induced rearing compared to control animals challenged with amphetamine” value is reported as “decreases amphetamine-induced hyperactivity; also recorded: reduced the rearing; also recorded: decreased the induced rearing in a similar manner as Li^+”.
In the case of `[Li]` [Li, lithium, reference compound], the “Vertical Activity (Rearing), Mean Activity, Amphetamine challenge” value is given as 126.7 and the “Vertical Activity (Rearing), Mean activity, Saline challenge” value turned out to be 59.8.
